Patent US20170290774A1, “NEUROKININ-1 RECEPTOR ANTAGONIST COMPOSITION FOR TREATMENT OF DISEASES AND CONDITIONS OF THE RESPIRATORY TRACT” (PLUS VITECH, S.L., priority 2014, published 2017)

How the values were obtained:
MMP-7 = assay: Immunohistochemistry of MMP-7 in respiratory tract tissue of sodium hypochlorite aerosol-treated rabbits; format: in vivo, New Zealand albino rabbits
Source text: It is known that the factors TGF-α, TGF-β 1, TGF-β 2, TGF-β 3, SPARC, MMP-3; MMP-7, MMP-9, MMP-11, MMP-13 and MMP-14, TGF-β, NF-kB, EGF, MMP-9, VEGF and TNF-α which are produced by lung cells (pneumocytes, fibroblasts and vascular endothelial cells) and inflammatory cells (macrophages, lymphocytes and polymorphonuclear leukocytes) are involved in the pathophysiology and development of said respiratory tract diseases. […] Herein, 27 New Zealand albino rabbits (New Zealand White Rabbit) with an initial average weight about 3 kg were used in this example. All subjects were administered an aerosol of a solution consisting of a mixture of water and sodium hypochlorite (35 g sodium hypochlorite per liter of water) at a rate of 5 mL of said solution by inhalation three times a day for 7 days (days 1 to 7 of experimentation). Subsequently, from days 3 to 7, a group of 3 rabbits (Group 1) was administered an oral dose of 10 mg/kg body weight per day, another group of 3 rabbits (Group 2) was administered an oral dose of 40 mg/kg body weight per day, a third group (Group 3) was administered an oral dose of 80 mg/kg body weight per day and a fourth group (Group 4) was administered an oral dose of 100 mg/kg body weight per day. […] This mixture was administered as an aerosol by inhalation, also from days 3 to 7, to a group of 3 rabbits (group 5) at a dose of 0.05 mg/kg body weight per day, to another group of three rabbits (Group 6) at a dose of 0.1 mg/kg body weight per day, to another group of three rabbits (Group 7) at a dose of 0.2 mg/kg body weight per day and to another group of three rabbits (Group 8) at a dose of 0.4 mg/kg body weight per day. A placebo consisting only of olive oil was administered from days 3 to 7 to a control group of 3 rabbits (placebo group). In parallel, 3 rabbits were kept under identical conditions but were not administered any treatment nor the aforementioned sodium hypochlorite solution (control group). […] On day 7 of the experiment all animals were euthanized and necropsied. […] Samples were taken at the peripheral level of the lung parenchyma, just below the pleural surface. Tissue samples were also taken from the nasal cavity, pharynx, larynx and bronchi. Immunohistochemistry studies were performed for all samples to evaluate the levels of the markers TGF-α, TGF-β 1, TGF-β 2, TGF-β 3 SPARC, MMP-3; MMP-7, MMP-9, MMP-11, MMP-14, TGF-β, TNF-α and VEGF. In said immunohistochemistry studies, a sample of each sample was dehydrated by treatment with increasing concentrations of ethanol and finally xylene. Subsequently said dried samples were embedded in paraffin, thus creating a block. Said paraffin blocks were cut on a microtome to a thickness of 5 μm, and the resulting sections (slices) were placed on slides suitable for conducting immunohistochemistry techniques. Subsequently, the sections were deparaffinised by immersion in xylene and then rehydrated through immersion in a series of solutions containing decreasing concentrations of ethanol and, finally, water. […] The samples were then allowed to cool to room temperature over 10 minutes. Endogenous peroxidase activity was blocked by treatment with 3% hydrogen peroxide over 30 min at room temperature. […] In order to verify the expression of NK1 receptors, the cell samples were incubated in the presence of anti-NK1 antibodies ([…], Sigma-Aldrich) diluted 1:1000 at 4° C. overnight. After this time they were washed in 0.05M Tris buffer at room temperature. Subsequently, Envision System-HRP (Dako) reagents were added for 30 min at room temperature. Once this time had expired, the samples were again washed with 0.05 M Tris buffer, and immunoreactivity was visualized by light microscopy with a chromogenic solution with 3,3'-diaminobenzidine (DAB+; Dako, USA). In order to differentiate the cell nuclei, these were lightly stained with haematoxylin. Samples that were not incubated with the primary antibody, but wherein this was replaced by a non-immune serum were used as negative controls. […]

[1] = Saturation concentration in olive oil:ethanol (9:1); format: physicochemical; conditions: 25° C.
Procedure: Each of said mixtures was continuously and gently stirred for 10 minutes at ambient temperature (25° C.) and then maintained at rest for 60 minutes. The saturation concentration was considered to be that which was immediately less than a concentration where deposition was observed, but in which no deposition of the active ingredient was observed.

For `C[C@@H](OC1OCCN(Cc2nc(=O)[nH][nH]2)C1c1ccc(F)cc1)c1cc(C(F)(F)F)cc(C(F)(F)F)c1` (stereo in doubt) [Aprepitant, 5-([(2R,3S)-2-((R)-1-[3,5-bis(trifluoromethyl)phenyl]ethoxy)-3-(4-fluorophenyl)morpholino]methyl)-1H-1,2,4-triazol-3(2H)-one], the “Percent increase in MMP-7 with respect to the control group” value (MMP-7; bronchial tissue, Group 1, oral 10 mg/kg per day) was 504.23%, the “Percent increase in MMP-7 with respect to the control group” value (MMP-7; bronchial tissue, Group 2, oral 40 mg/kg per day) was 406.34% and the “Percent increase in MMP-7 with respect to the control group” value (MMP-7; bronchial tissue, Group 3, oral 80 mg/kg per day) was 398.45%. For the same compound, the “Percent increase in MMP-7 with respect to the control group” value (MMP-7; bronchial tissue, Group 4, oral 100 mg/kg per day) was 289.56%, the “% Med G5/C: percent increase in marker MMP-7 with respect to the control group” value (MMP-7; bronchial tissue, Group 5) was 549.34% and the “% Med G6/C: percent increase in marker MMP-7 with respect to the control group” value (MMP-7; bronchial tissue, Group 6) was 467.45%. For the same compound, the “% Med G7/C: percent increase in marker MMP-7 with respect to the control group” value (MMP-7; bronchial tissue, Group 7) was 356.47%, the “% Med G8/C: percent increase in marker MMP-7 with respect to the control group” value (MMP-7; bronchial tissue, Group 8) was 241.56% and the “Percent increase in MMP-7 with respect to the control group” value (MMP-7; laryngeal tissue, Group 1, oral 10 mg/kg per day) was 1,012.67%. The “Percent increase in MMP-7 with respect to the control group” value (MMP-7; laryngeal tissue, Group 2, oral 40 mg/kg per day) was 899.78%, the “Percent increase in MMP-7 with respect to the control group” value (MMP-7; laryngeal tissue, Group 3, oral 80 mg/kg per day) was 788.56% and the “Percent increase in MMP-7 with respect to the control group” value (MMP-7; laryngeal tissue, Group 4, oral 100 mg/kg per day) was 576.89%. The “Percent increase in MMP-7 with respect to the control group” value (MMP-7; laryngeal tissue, Group 5, inhalation 0.05 mg/kg per day) was 1,205.45%, the “Percent increase in MMP-7 with respect to the control group” value (MMP-7; laryngeal tissue, Group 6, inhalation 0.1 mg/kg per day) was 809.54% and the “Percent increase in MMP-7 with respect to the control group” value (MMP-7; laryngeal tissue, Group 7, inhalation 0.2 mg/kg per day) was 372.23%. The “Percent increase in MMP-7 with respect to the control group” value (MMP-7; laryngeal tissue, Group 8, inhalation 0.4 mg/kg per day) was 112.25%, the “Percent increase in MMP-7 with respect to the control group” value (MMP-7; lung tissue, Group 1, oral 10 mg/kg per day) was 345.90% and the “Percent increase in MMP-7 with respect to the control group” value (MMP-7; lung tissue, Group 2, oral 40 mg/kg per day) was 325.50%. The “Percent increase in MMP-7 with respect to the control group” value (MMP-7; lung tissue, Group 3, oral 80 mg/kg per day) was 220.38%, the “Percent increase in MMP-7 with respect to the control group” value (MMP-7; lung tissue, Group 4, oral 100 mg/kg per day) was 184.56% and the “Percent increase in MMP-7 with respect to the control group” value (MMP-7; lung tissue, Group 5, inhalation 0.05 mg/kg per day) was 321.48%. The “Percent increase in MMP-7 with respect to the control group” value (MMP-7; lung tissue, Group 6, inhalation 0.1 mg/kg per day) was 232.63%, the “Percent increase in MMP-7 with respect to the control group” value (MMP-7; lung tissue, Group 7, inhalation 0.2 mg/kg per day) was 142.07% and the “Percent increase in MMP-7 with respect to the control group” value (MMP-7; lung tissue, Group 8, inhalation 0.4 mg/kg per day) was 109.05%. The “Percent increase in MMP-7 with respect to the control group” value (MMP-7; nasal cavity tissue, Group 1, oral 10 mg/kg per day) was 2,267.10%, the “Percent increase in MMP-7 with respect to the control group” value (MMP-7; nasal cavity tissue, Group 2, oral 40 mg/kg per day) was 1,308.16% and the “Percent increase in MMP-7 with respect to the control group” value (MMP-7; nasal cavity tissue, Group 3, oral 80 mg/kg per day) was 1,119.62%. The “Percent increase in MMP-7 with respect to the control group” value (MMP-7; nasal cavity tissue, Group 4, oral 100 mg/kg per day) was 942.01%, the “Percent increase in MMP-7 with respect to the control group” value (MMP-7; nasal cavity tissue, Group 5, inhalation 0.05 mg/kg per day) was 1,835.98% and the “Percent increase in MMP-7 with respect to the control group” value (MMP-7; nasal cavity tissue, Group 6, inhalation 0.1 mg/kg per day) was 1,147.87%. The “Percent increase in MMP-7 with respect to the control group” value (MMP-7; nasal cavity tissue, Group 7, inhalation 0.2 mg/kg per day) was 444.94%, the “Percent increase in MMP-7 with respect to the control group” value (MMP-7; nasal cavity tissue, Group 8, inhalation 0.4 mg/kg per day) was 136.90% and the “Percent increase in MMP-7 with respect to the control group” value (MMP-7; pharyngeal tissue, Group 1, oral 10 mg/kg per day) was 2,004.34%. For the same compound, the “Percent increase in MMP-7 with respect to the control group” value (MMP-7; pharyngeal tissue, Group 2, oral 40 mg/kg per day) was 1,591.34%, the “Percent increase in MMP-7 with respect to the control group” value (MMP-7; pharyngeal tissue, Group 3, oral 80 mg/kg per day) was 1,456.45% and the “Percent increase in MMP-7 with respect to the control group” value (MMP-7; pharyngeal tissue, Group 4, oral 100 mg/kg per day) was 967.12%. The “Percent increase in MMP-7 with respect to the control group” value (MMP-7; pharyngeal tissue, Group 5, inhalation 0.05 mg/kg per day) was 1,820.78%, the “Percent increase in MMP-7 with respect to the control group” value (MMP-7; pharyngeal tissue, Group 6, inhalation 0.1 mg/kg per day) was 1,109.45% and the “Percent increase in MMP-7 with respect to the control group” value (MMP-7; pharyngeal tissue, Group 7, inhalation 0.2 mg/kg per day) was 450.45%. The “Percent increase in MMP-7 with respect to the control group” value (MMP-7; pharyngeal tissue, Group 8, inhalation 0.4 mg/kg per day) was 121.80% and the Saturation concentration [1] was 80 nM.
